The record followed here is ChEMBL document CHEMBL1201862, “PubChem BioAssay data set” (2004).

Among the test systems are Hs-578T; OVCAR-5; SF-539; OVCAR-8; OVCAR-4; HL-60; HOP-92; OVCAR-3; T47D; DU-145; MOLT-4; SW-620; EKVX; UACC-257; CAKI-1; HT-29; HCC 2998; SK-MEL-28; M14; SR.
What all share (experiment): NCI-60 cell line screen, 48 h

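Step 1: Grow cells in 96-well plates. Step 2: Expose to compound for 48 hours at 5 concentrations. Step 3: Interpolate endpoints linearly; if unreached, use highest concentration. Here, GI50 denotes the concentration required for 50% inhibition of growth.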 Active and inactive are the calls of the source. Cut-off read from the data, not from the text of the source: active = GI50 up to about 1.1 µM and inactive = higher.

As to `CCC1C(=O)OCc2c1cc1n(c2=O)Cc2cc3ccccc3nc2-1` (centres undefined), the GI50 in the test with Hs-578T was > 54.3 µM (inactive); in the test with OVCAR-5, 33.4 µM (inactive); in the test on SF-539, 1.73 µM (inactive); with OVCAR-8, 5.69 µM (inactive); in the test with OVCAR-4, > 81.8 µM (inactive); in the test with HL-60 it was 1.88 µM (inactive). Besides, the GI50 in the test with HOP-92 was 13.1 µM (inactive); with OVCAR-3, > 100 µM (inactive); in the test with T47D, 4.38 µM (inactive); with DU-145, 2.98 µM (inactive); with MOLT-4, 0.733 µM (active); with SW-620, 7.16 µM (inactive). For the same molecule, the GI50 was 77.6 µM (inactive) in the test on EKVX; 50.7 µM (inactive) in the test with UACC-257; 2.17 µM (inactive) in the test with CAKI-1; 29.5 µM (inactive) in the test on HT-29; 25.9 µM (inactive) in the test on HCC 2998; 13.2 µM (inactive) with SK-MEL-28. For the same molecule, the GI50 in the test with M14 was 3.38 µM (inactive).
For the molecule `COc1ccc2[nH]c3c(C)c4ccnc(NCCCN(C)CCCNc5ccc6nnn7c8ccccc8c(=O)c5c67)c4c(C)c3c2c1`, the GI50 is 1.38 µM (inactive) in the test with Hs-578T; 1.24 µM (inactive) with OVCAR-5; 0.237 µM (active) in the test on SF-539; 0.297 µM (active) with OVCAR-8; 1.02 µM (active) in the test on OVCAR-4; 0.135 µM (active) in the test with HL-60. For the same molecule, the GI50 was 1.17 µM (inactive) in the test with OVCAR-3; 1.81 µM (inactive) in the test with T47D; 0.00104 µM (active) with MOLT-4; 0.013 µM (active) with SW-620; 1.01 µM (active) in the test with EKVX; 1.43 µM (inactive) with UACC-257. Besides, the GI50 in the test with CAKI-1 was 1.03 µM (active); in the test on HT-29, 0.0266 µM (active); in the test on HCC 2998, 0.209 µM (active); in the test with SR, 0.335 µM (active); in the test with SK-MEL-28, 1.75 µM (inactive); in the test on M14 it was 0.938 µM (active).
As for `Cc1cccc2c(N)c3cccc(C(=O)NCC[N+](C)(C)Cc4sc(N5CCOCC5)nc4[N+](=O)[O-])c3nc12`, the GI50 in the test on Hs-578T is 0.748 µM (active); with OVCAR-5 it was 1.32 µM (inactive); in the test with SF-539, 1.12 µM (active); with OVCAR-8, 2.12 µM (inactive); in the test on OVCAR-4 it was 4.11 µM (inactive); with HL-60, 0.071 µM (active). In addition, the GI50 in the test on HOP-92 was 15.2 µM (inactive); in the test on OVCAR-3 it was 2.09 µM (inactive); in the test on T47D, 12.7 µM (inactive); in the test with DU-145 it was 4.01 µM (inactive); in the test on MOLT-4, 0.231 µM (active); with SW-620, 0.6 µM (active). Moreover, the GI50 was 4.26 µM (inactive) with EKVX; 6.9 µM (inactive) in the test with UACC-257; 0.344 µM (active) in the test on CAKI-1; 0.444 µM (active) in the test with HT-29; 1.41 µM (inactive) in the test on HCC 2998; 29.7 µM (inactive) with SK-MEL-28. Moreover, the GI50 in the test with M14 was 2.77 µM (inactive).
Consider `CCn1c2c(c3ccccc3c1=O)C(=O)c1ccccc1-2`, for which the GI50 in the test with Hs-578T was 74.5 µM (inactive); with OVCAR-5, > 100 µM (inactive); in the test on SF-539, 19.1 µM (inactive); with OVCAR-8 it was > 100 µM (inactive); with OVCAR-4 it was > 100 µM (inactive); in the test with HL-60 it was > 100 µM (inactive). Further, the GI50 in the test with HOP-92 was > 100 µM (inactive); with OVCAR-3 it was > 100 µM (inactive); with T47D, > 100 µM (inactive); in the test with DU-145, > 100 µM (inactive); with MOLT-4, 3.12 µM (inactive); with SW-620, > 100 µM (inactive). For the same molecule, the GI50 with EKVX, in the test on UACC-257, in the test on CAKI-1, with HT-29, with SK-MEL-28 and in the test with M14 was > 100 µM (inactive) throughout.
As for `Cc1ccc(C(=O)Nc2ccc(CP(=O)(O)O)cc2)cc1NC(=O)c1cccc(NC(=O)Nc2cccc(C(=O)Nc3cc(C(=O)Nc4ccc(CP(=O)(O)O)cc4)ccc3C)c2)c1`, the GI50 in the test on Hs-578T, with OVCAR-5, in the test on SF-539, with OVCAR-8, in the test on OVCAR-4 and in the test with HL-60 was > 100 µM (inactive) throughout. Also, the GI50 with OVCAR-3, in the test with T47D, with DU-145, in the test on SW-620, in the test with EKVX and with UACC-257 was > 100 µM (inactive) each time. Besides, the GI50 with CAKI-1, with HT-29, with HCC 2998, with SK-MEL-28 and in the test with M14 was > 100 µM (inactive) in each case.
Take `N#CC(Cc1ccccc1)N(CCC1=CCCCC1)C(c1ccccc1)c1ccccc1` (centres undefined): the GI50 in the test on Hs-578T was 69.3 µM (inactive); with OVCAR-5, 95.7 µM (inactive); in the test on OVCAR-8, > 100 µM (inactive); in the test with OVCAR-4 it was > 100 µM (inactive); with HOP-92, 28.1 µM (inactive); in the test on OVCAR-3, > 100 µM (inactive). Further, the GI50 in the test on T47D was 42.3 µM (inactive); in the test with DU-145, > 100 µM (inactive); in the test on MOLT-4, 66.8 µM (inactive); in the test with SW-620 it was 38.9 µM (inactive); in the test with EKVX it was 35.7 µM (inactive); in the test on UACC-257, 43 µM (inactive). Besides, the GI50 was > 100 µM (inactive) in the test on CAKI-1; 12.8 µM (inactive) in the test with HT-29; 32 µM (inactive) in the test with HCC 2998; 77.3 µM (inactive) in the test on SK-MEL-28; 18.8 µM (inactive) with M14.
Turning to `Cn1ccnc1SC(F)(F)c1nc2ccccc2o1`, the GI50 with Hs-578T, with OVCAR-5, with SF-539, in the test with OVCAR-8, in the test with OVCAR-4 and in the test with HOP-92 was > 100 µM (inactive) in each case. For the same molecule, the GI50 in the test on OVCAR-3, in the test with T47D, with DU-145, in the test on MOLT-4, in the test on SW-620 and in the test with UACC-257 was > 100 µM (inactive) each time. Moreover, the GI50 with CAKI-1, in the test with HT-29, in the test on HCC 2998, in the test with SK-MEL-28 and in the test with M14 was > 100 µM (inactive) in each case.
For `Cc1ccc2c(ccc(/C=C/c3ccc(O)c4ncccc34)[n+]2C)c1`, the GI50 is > 100 µM (inactive) with Hs-578T; 25.2 µM (inactive) in the test on OVCAR-5; 7.18 µM (inactive) in the test with SF-539; 2.38 µM (inactive) in the test on OVCAR-8; 5.09 µM (inactive) in the test with OVCAR-4; 19.5 µM (inactive) in the test with HL-60. For the same molecule, the GI50 is 14.7 µM (inactive) in the test with HOP-92; 0.817 µM (active) in the test on OVCAR-3; > 32.1 µM (inactive) in the test on DU-145; 1.75 µM (inactive) in the test with MOLT-4; 4.65 µM (inactive) with SW-620; 18.1 µM (inactive) in the test with EKVX. The GI50 with UACC-257 was 8.04 µM (inactive); with CAKI-1, 5.55 µM (inactive); in the test on HT-29 it was 12.2 µM (inactive); with HCC 2998, 3.56 µM (inactive); in the test with SR, 2.74 µM (inactive); in the test with SK-MEL-28, 10.3 µM (inactive). The GI50 in the test with M14 is 13.6 µM (inactive).
For `Cc1cn(C2CC(OC(c3ccccc3)(c3ccccc3)c3ccccc3)C(COC(c3ccccc3)(c3ccccc3)c3ccccc3)O2)c(=O)[nH]c1=O` (centres undefined), the GI50 is 38.1 µM (inactive) in the test on Hs-578T; 53.1 µM (inactive) in the test with OVCAR-5; > 100 µM (inactive) in the test with SF-539; > 100 µM (inactive) with OVCAR-8; > 100 µM (inactive) in the test with OVCAR-4; 53.1 µM (inactive) in the test with HL-60. Moreover, the GI50 is 21.1 µM (inactive) in the test on HOP-92; > 100 µM (inactive) in the test on OVCAR-3; > 100 µM (inactive) with DU-145; 29.4 µM (inactive) with MOLT-4; 90.4 µM (inactive) in the test on SW-620; 45.6 µM (inactive) in the test on EKVX. For the same molecule, the GI50 is > 100 µM (inactive) with UACC-257; > 100 µM (inactive) with CAKI-1; 61 µM (inactive) in the test with HT-29; > 100 µM (inactive) in the test on HCC 2998; > 100 µM (inactive) in the test with SR; 36.8 µM (inactive) in the test on SK-MEL-28. Further, the GI50 in the test with M14 was > 100 µM (inactive).
`NC(=O)NNc1nc2ccccc2c(=O)n1NC(=O)C(=O)Nc1ccc(Cl)cc1Cl`: the GI50 with Hs-578T, in the test with OVCAR-5, with SF-539, in the test with OVCAR-8, with OVCAR-4 and in the test with HOP-92 was > 100 µM (inactive) each time. The GI50 in the test with OVCAR-3 is > 100 µM (inactive); in the test with T47D, > 100 µM (inactive); in the test with MOLT-4, > 100 µM (inactive); in the test on SW-620, > 100 µM (inactive); in the test on EKVX, 66.8 µM (inactive); in the test with UACC-257, > 100 µM (inactive). Further, the GI50 is > 100 µM (inactive) with CAKI-1; > 100 µM (inactive) with HT-29; > 100 µM (inactive) in the test with HCC 2998; 65.2 µM (inactive) in the test on SR; > 100 µM (inactive) in the test on SK-MEL-28; > 100 µM (inactive) in the test on M14.
As to `N#Cc1c(O)cc(=O)n2c1[nH]c1ccccc12`, the GI50 in the test on Hs-578T, in the test with OVCAR-5, in the test with SF-539, in the test on OVCAR-8, in the test with OVCAR-4 and in the test on HL-60 was > 100 µM (inactive) in each case. The GI50 in the test with HOP-92, with OVCAR-3, in the test on DU-145, with MOLT-4, with SW-620 and with EKVX was > 100 µM (inactive) each time. The GI50 in the test with UACC-257, with CAKI-1, in the test on HT-29, in the test with HCC 2998, in the test with SR and in the test on M14 was > 100 µM (inactive) each time.
